Data taken from paper PMC8119466, “A screen of FDA-approved drugs identifies inhibitors of protein tyrosine phosphatase 4A3 (PTP4A3 or PRL-3)” (Scientific Reports, 2021).
Structures can show the parent of a compound that is named as a salt. Where two headings read alike, the source gives them in different places.

Assays:
Assay type in all cases: biochemical
recombinant PRL-2 = molecular target: T1, recombinant PRL-2 (Homo sapiens, UniProt Q12974); test: In vitro phosphatase assay (DiFMUP hydrolysis), PRL-2;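 also: PRL-2 activity read as DiFMUP hydrolysis after 20 min at room temperature with drug, enzyme first pre-reduced at 4 °C for 20 min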
T1 construct: 6xHis (N, cleaved yes); made in house; host or cells: E. coli One Shot BL21 Star
T1 sequence (Q12974 1-167): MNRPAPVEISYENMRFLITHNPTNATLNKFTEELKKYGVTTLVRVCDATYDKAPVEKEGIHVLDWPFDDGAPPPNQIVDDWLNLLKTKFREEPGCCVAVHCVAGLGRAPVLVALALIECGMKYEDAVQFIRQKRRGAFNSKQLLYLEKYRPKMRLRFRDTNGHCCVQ

recombinant PRL-3 = molecular target: T2, recombinant PRL-3 (Homo sapiens, UniProt O75365); test: In vitro phosphatase assay (DiFMUP hydrolysis), PRL-3; as to % Phosphatase Activity (compared to DMSO) PRL-3: test concentration or dose not given here
T2 construct: 6xHis (N, cleaved yes); made in house; host or cells: E. coli One Shot BL21 Star
T2 sequence (O75365 whole entry): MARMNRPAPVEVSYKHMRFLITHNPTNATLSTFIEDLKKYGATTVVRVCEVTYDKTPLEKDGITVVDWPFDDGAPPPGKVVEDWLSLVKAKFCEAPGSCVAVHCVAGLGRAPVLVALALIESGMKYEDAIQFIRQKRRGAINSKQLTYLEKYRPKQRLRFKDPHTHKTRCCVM

recombinant PRL-1 = molecular target: T3, recombinant PRL-1 (Homo sapiens, UniProt Q93096); test: In vitro phosphatase assay (DiFMUP hydrolysis), PRL-1; as to % Phosphatase Activity (compared to DMSO) PRL-1: test concentration or dose not given here
T3 construct: 6xHis (N, cleaved yes); made in house; host or cells: E. coli One Shot BL21 Star
T3 sequence (Q93096 1-173): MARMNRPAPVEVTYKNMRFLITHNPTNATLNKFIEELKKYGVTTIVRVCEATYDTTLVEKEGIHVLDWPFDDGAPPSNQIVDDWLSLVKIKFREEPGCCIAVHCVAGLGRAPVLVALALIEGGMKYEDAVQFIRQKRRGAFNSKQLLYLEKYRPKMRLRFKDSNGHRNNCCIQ

[1] = FDA-approved drug screen, compared to DMSO
[2] = FDA-approved drug screen, activity compared to DMSO

SMILES | % Phosphatase Activity (compared to DMSO) PRL-2 (recombinant PRL-2; [1]) [%] | % Phosphatase Activity (compared to DMSO) PRL-3 (recombinant PRL-3; [1]) [%] | % Phosphatase Activity (compared to DMSO) PRL-1 (recombinant PRL-1; [1]) [%] | other results
CC[C@@H]1/C=C(\C)C[C@H](C)C[C@H](OC)[C@H]2O[C@@](O)(C(=O)C(=O)N3CCCC[C@H]3C(=O)O[C@H](/C(C)=C/[C@@H]3CC[C@H](Cl)[C@H](OC)C3)[C@H](C)[C@@H](O)CC1=O)[C@H](C)C[C@@H]2OC [Pimecrolimus] | 73 | 101 | 87 | –
Cc1ccccc1N1C(=O)c2cc(S(N)(=O)=O)c(Cl)cc2NC1C (stereo not drawn) [Metolazone] | 163 | 121 | 144 | –
CN(C)C(=O)c1cc2cnc(Nc3ccc(N4CCNCC4)cn3)nc2n1C1CCCC1 [LEE011] | 84 | 98 | 103 | –
C[C@H](Nc1ncnc2nc[nH]c12)c1cc2cccc(Cl)c2c(=O)n1-c1ccccc1 [IPI-145 (INK1197)] | 88 | 97 | 107 | –
Nc1nc(F)nc2c1ncn2[C@@H]1O[C@H](COP(=O)(O)O)[C@@H](O)[C@@H]1O [Fludarabine Phosphate] | 91 | 70 | 97 | –
C=C1C[C@@H]2[C@H](CC[C@]3(C)C(=O)CC[C@@H]23)[C@@]2(C)C=CC(=O)C=C12 [Exemestane] | 116 | 87 | 95 | –
CCCCCCCCCCCCCCCC[N+](C)(C)C.[Br-] [Cetrimonium Bromide (CTAB)] | 103 | 92 | 97 | –
C[C@H]1C[C@H]2[C@@H]3CCC4=CC(=O)C=C[C@]4(C)[C@H]3C(=O)C[C@]2(C)[C@@]1(O)C(=O)CO [Meprednisone] | 97 | 78 | 99 | –
NC(=O)C[S+]([O-])C(c1ccccc1)c1ccccc1 (stereo not drawn) [Modafinil] | 92 | 82 | 91 | –
Cc1cncc(CN2CCC(=C3c4ccc(Cl)cc4CCc4cccnc43)CC2)c1.O=C(O)/C=C/C(=O)O [Rupatadine Fumarate] | 100 | 98 | 92 | –
CN(C)CCOC(c1ccccc1)c1ccccc1 [Diphenhydramine HCl] | 108 | 111 | 113 | –
C[C@]12CCC3=C4CCC(=O)C=C4CC[C@H]3[C@@H]1CC[C@@]2(O)CC#N [Dienogest] | 78 | 72 | 100 | –
CNS(=O)(=O)Cc1ccc2[nH]cc(CCN(C)C)c2c1 [Sumatriptan Succinate] | – | – | – | % Phosphatase Activity (compared to DMSO) PRL-2 (recombinant PRL-2; [2]): 84%; % Phosphatase Activity (compared to DMSO) PRL-3 (recombinant PRL-3; [2]): 80%; % Phosphatase Activity (compared to DMSO) PRL-1 (recombinant PRL-1; [2]): 99%
C=CC[C@]1(O)CC[C@H]2[C@@H]3CCC4=CC(=O)CCC4=C3C=C[C@@]21C [Altrenogest] | 178 | 156 | 192 | –
NC(=O)CN1CCCC1=O [Piracetam] | 96 | 83 | 98 | –
C[C@@H]1O[C@@H](OC[C@H]2O[C@@H](Oc3c(-c4ccc(O)c(O)c4)oc4cc(O)cc(O)c4c3=O)[C@H](O)[C@@H](O)[C@@H]2O)[C@H](O)[C@H](O)[C@H]1O [Rutin] | 82 | 71 | 88 | –
O=c1[nH]cnc2c1ncn2[C@H]1CC[C@@H](CO)O1 [Didanosine] | 114 | 85 | 95 | –
CN(C)CC/C=C1/c2ccccc2Sc2ccc(Cl)cc21 [Chlorprothixene] | 107 | 93 | 98 | –
OC(CCCN1CCCCC1)(c1ccccc1)c1ccccc1 [Diphenidol HCl] | 115 | 89 | 102 | –

SMILES | % Phosphatase Activity (compared to DMSO) PRL-2 (recombinant PRL-2; [1]) [%] | % Phosphatase Activity (compared to DMSO) PRL-3 (recombinant PRL-3; [1]) [%] | % Phosphatase Activity (compared to DMSO) PRL-1 (recombinant PRL-1; [1]) [%] | other results
COC(=O)N[C@H](C(=O)N[C@@H](Cc1ccccc1)[C@@H](O)CN(Cc1ccc(-c2ccccn2)cc1)NC(=O)[C@@H](NC(=O)OC)C(C)(C)C)C(C)(C)C [Atazanavir] | 89 | 85 | 94 | –
CN(C)CCc1c[nH]c2ccc(Cn3cncn3)cc12 [Rizatriptan Benzoate] | 103 | 90 | 98 | –
COC(=O)CCc1ccc(OCC(O)CNC(C)C)cc1 (stereo not drawn) [Esmolol HCl] | 101 | 73 | 93 | –
Cc1cc(NC(=O)C2=C(O)c3ccccc3S(=O)(=O)N2C)no1 [Isoxicam] | 91 | 84 | 91 | –
O=c1[nH]c(=O)n([C@H]2C[C@H](O)[C@@H](CO)O2)cc1I [Idoxuridine] | 103 | 90 | 94 | –
COc1ccc2[n-]c([S@@+]([O-])Cc3ncc(C)c(OC)c3C)nc2c1.[Na+] [Esomeprazole Sodium] | 124 | 92 | 112 | –
CNC[C@H](O)c1cccc(O)c1 [Phenylephrine HCl] | 98 | 85 | 103 | –
N#CC1(c2ccc(NC(=O)c3cccnc3NCc3ccncc3)cc2)CCCC1 [Apatinib] | 106 | 88 | 100 | –
C[N+](C)(C)CCO.[Cl-] [Choline Chloride] | – | – | – | % Phosphatase Activity (compared to DMSO) PRL-2 (recombinant PRL-2): 106%; % Phosphatase Activity (compared to DMSO) PRL-3 (recombinant PRL-3): 75%; % Phosphatase Activity (compared to DMSO) PRL-1 (recombinant PRL-1): 99%
CC(=O)N[C@H]1[C@H]([C@H](O)[C@H](O)CO)OC(C(=O)O)=C[C@@H]1N=C(N)N [Zanamivir] | – | – | – | % Phosphatase Activity (compared to DMSO) PRL-2 (recombinant PRL-2; [2]): 98%; % Phosphatase Activity (compared to DMSO) PRL-3 (recombinant PRL-3; [2]): 115%; % Phosphatase Activity (compared to DMSO) PRL-1 (recombinant PRL-1; [2]): 90%
Cc1cc(C(C#N)c2ccc(Cl)cc2)c(Cl)cc1NC(=O)c1cc(I)cc(I)c1[O-].[Na+] (stereo not drawn) [Closantel Sodium, reference compound] | 12 | 34 | 15 | IC50 (recombinant PRL-2; […] protein, DiFMUP at KM, read-out: Calculated IC50, PRL-2 phosphatase activity): 18 ± 1 µM; IC50 (recombinant PRL-3; […] protein, DiFMUP at KM, read-out: Calculated IC50, PRL-3 phosphatase activity): 10 ± 0.4 µM; IC50 (recombinant PRL-1; […] protein, DiFMUP at KM, read-out: Calculated IC50, PRL-1 phosphatase activity): 22 ± 8 µM
C[C@H](Cc1cc2c(c(C(N)=O)c1)N(CCCO)CC2)NCCOc1ccccc1OCC(F)(F)F [Silodosin] | – | – | – | % Phosphatase Activity (compared to DMSO) PRL-2 (recombinant PRL-2; [2]): 104%; % Phosphatase Activity (compared to DMSO) PRL-3 (recombinant PRL-3; [2]): 95%; % Phosphatase Activity (compared to DMSO) PRL-1 (recombinant PRL-1; [2]): 117%
CCCc1cc(C(N)=S)ccn1 [Protionamide] | 101 | 97 | 100 | –
CCOC(=O)[C@H](CCc1ccccc1)N[C@@H](C)C(=O)N1Cc2ccccc2C[C@H]1C(=O)O [Quinapril HCl] | 106 | 80 | 92 | –
CC(C)CN(C[C@@H](O)[C@H](Cc1ccccc1)NC(=O)O[C@H]1CO[C@H]2OCC[C@H]21)S(=O)(=O)c1ccc(N)cc1.CCO [Darunavir Ethanolate] | 81 | 80 | 99 | –
CC(=O)N1CCN(c2ccc(OCC3COC(Cn4ccnc4)(c4ccc(Cl)cc4Cl)O3)cc2)CC1 (stereo not drawn) [Ketoconazole] | 89 | 75 | 92 | –
NC(=O)N1c2ccccc2CC(=O)c2ccccc21 [Oxcarbazepine] | 112 | 89 | 104 | –
CC(C)N(CCC(C(N)=O)(c1ccccc1)c1ccccn1)C(C)C (stereo not drawn) [Disopyramide Phosphate] | 107 | 93 | 94 | –
